Where a name gives a salt, the structure may show the parent alone.
Assays:
[1] = target: T1, src protein kinase (Gallus gallus, UniProt P00523); assay: Biochemical SRC assay (phosphorylation of biotinylated peptide); settings: read-out: bio src IC50
T1 construct: host or cells: Schizosaccharomyces pombe SP200

[2] = target: T2, PDGFR-β (Homo sapiens, UniProt P09619); assay: Biochemical PDGFR assay (ELISA, PDGFR-β expressing NIH 3T3 cell lysate); settings: read-out: bio PDGF IC50
T2 construct: host or cells: NIH 3T3
T2 sequence (P09619 33-1106): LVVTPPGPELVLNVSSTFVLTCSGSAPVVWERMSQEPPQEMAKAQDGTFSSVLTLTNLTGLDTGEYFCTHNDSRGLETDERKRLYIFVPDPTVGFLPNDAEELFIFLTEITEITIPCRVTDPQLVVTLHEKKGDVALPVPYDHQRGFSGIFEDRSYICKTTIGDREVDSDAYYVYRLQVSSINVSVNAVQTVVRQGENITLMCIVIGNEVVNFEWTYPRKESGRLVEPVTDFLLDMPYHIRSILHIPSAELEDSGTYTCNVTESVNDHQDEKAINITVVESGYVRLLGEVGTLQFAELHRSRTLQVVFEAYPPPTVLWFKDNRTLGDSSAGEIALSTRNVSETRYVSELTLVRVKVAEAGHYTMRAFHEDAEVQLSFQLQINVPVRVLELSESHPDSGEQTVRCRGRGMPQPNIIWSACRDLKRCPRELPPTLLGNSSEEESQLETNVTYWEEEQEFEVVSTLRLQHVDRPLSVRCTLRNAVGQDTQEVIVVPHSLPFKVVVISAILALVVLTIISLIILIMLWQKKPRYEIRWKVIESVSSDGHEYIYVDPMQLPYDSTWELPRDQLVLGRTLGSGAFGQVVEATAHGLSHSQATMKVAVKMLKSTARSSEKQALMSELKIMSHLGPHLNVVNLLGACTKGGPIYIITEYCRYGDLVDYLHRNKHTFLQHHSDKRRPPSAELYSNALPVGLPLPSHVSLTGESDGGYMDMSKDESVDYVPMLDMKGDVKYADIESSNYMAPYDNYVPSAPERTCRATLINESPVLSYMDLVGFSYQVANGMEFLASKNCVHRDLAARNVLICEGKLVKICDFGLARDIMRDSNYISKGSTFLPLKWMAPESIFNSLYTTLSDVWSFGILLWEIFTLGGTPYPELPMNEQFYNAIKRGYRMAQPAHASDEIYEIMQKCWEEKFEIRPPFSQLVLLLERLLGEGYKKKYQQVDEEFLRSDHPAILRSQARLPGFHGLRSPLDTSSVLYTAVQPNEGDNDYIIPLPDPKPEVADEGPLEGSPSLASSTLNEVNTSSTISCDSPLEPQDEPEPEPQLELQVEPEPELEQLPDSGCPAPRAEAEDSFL
Outline: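 Phosphorylation was read by ELISA (anti-phosphotyrosine serum, peroxidase secondary, ABTS at 410 nm) after a 30 min room-temperature reaction with 20 μM ATP, EDTA-stopped. Kinase was lysate-derived PDGFR-β (NIH 3T3) immobilised via 28D4C10 antibody, compound added 30 min before ATP.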

[3] = target: Myc-GyrB-FGFR fusion protein (Homo sapiens, UniProt P11362); assay: Biochemical FGFR assay (ELISA); settings: read-out: bio fgfR1 IC50
Myc-GyrB-FGFR fusion protein, sequence (P11362 478-767 limits assumed): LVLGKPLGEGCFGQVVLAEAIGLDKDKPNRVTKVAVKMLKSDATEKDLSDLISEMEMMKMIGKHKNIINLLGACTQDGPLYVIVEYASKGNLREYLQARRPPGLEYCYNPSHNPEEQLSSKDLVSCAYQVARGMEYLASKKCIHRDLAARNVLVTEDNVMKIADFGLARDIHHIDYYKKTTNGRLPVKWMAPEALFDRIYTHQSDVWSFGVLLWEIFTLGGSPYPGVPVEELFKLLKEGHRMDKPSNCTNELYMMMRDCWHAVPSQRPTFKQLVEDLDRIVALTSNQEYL

[4] = target: T3, flkGST (Homo sapiens, UniProt P35968); assay: bio flkGST assay; assay type: biochemical
T3 construct: GST
T3 sequence (P35968 786-1356 limits assumed): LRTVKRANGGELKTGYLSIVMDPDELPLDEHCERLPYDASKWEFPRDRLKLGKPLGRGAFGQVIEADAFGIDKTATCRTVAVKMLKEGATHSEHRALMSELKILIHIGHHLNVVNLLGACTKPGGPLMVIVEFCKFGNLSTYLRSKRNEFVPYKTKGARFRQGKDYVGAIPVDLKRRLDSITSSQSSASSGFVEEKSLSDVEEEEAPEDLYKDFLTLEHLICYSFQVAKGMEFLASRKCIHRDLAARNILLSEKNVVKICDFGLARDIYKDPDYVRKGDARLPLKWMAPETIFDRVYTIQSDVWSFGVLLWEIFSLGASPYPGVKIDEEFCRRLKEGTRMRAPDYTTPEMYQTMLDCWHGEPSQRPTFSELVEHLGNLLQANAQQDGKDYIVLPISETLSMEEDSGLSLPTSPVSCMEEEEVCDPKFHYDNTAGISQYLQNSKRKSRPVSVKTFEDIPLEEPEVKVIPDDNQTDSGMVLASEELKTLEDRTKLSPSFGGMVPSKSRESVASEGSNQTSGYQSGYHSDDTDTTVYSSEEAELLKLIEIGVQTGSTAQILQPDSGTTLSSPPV

IC50 [1]	IC50 [2]	IC50 [3]	IC50 [4]	Compound
150 nM	8320 nM	3600 nM		Cc1c(/C=C2\C(=O)Nc3ccc(C(=O)O)cc32)[nH]c2ccccc12 [Example 156, 3-(3-Methyl-1H-indol-2-ylmethylene)-2-oxo-2,3-dihydro-1H-indole-5-carboxylic acid (piperidine salt)]
> 100000 nM	> 100000 nM	> 20000 nM		CNS(=O)(=O)c1ccc2c(c1)C(=Cc1[nH]c3ccccc3c1C)C(=O)N2 (racemic) [Example 154, 3-(3-Methyl-1H-indol-2-ylmethylene)-2-oxo-2,3-dihydro-1H-indole-5-sulfonic acid methylamide]
	2970 nM	2570 nM	1080 nM	CCOC(=O)c1c(C)[nH]c(/C=C2\C(=O)Nc3cc(-c4ccc(F)cc4)ccc32)c1CCC(=O)O [Example 108, 4-(2-Carboxyethyl)-5-[6-(4-fluorophenyl)-2-oxo-1,2-dihydro-indol-3-ylidenemethyl]-2-methyl-1H-pyrrole-3-carboxylic acid ethyl ester]

From patent publication US6855730B2, “3-methylidenyl-2-indolinone modulators of protein kinase” (Sugen, Inc., priority 1998, dated 2005)
